According to publication PMC6967409 (Frontiers in Chemistry, 2020):
Where “and” joins values, the source holds several entries; their conditions need not be identical. Identical values can stand only once. Like-named read-outs stand apart in the source and are kept apart here.

Columns and labels:
P. falciparum W2 [1] = assay: T0 [3H]-hypoxanthine drug susceptibility assay; type: cell-based; conditions: Plasmodium falciparum
P. falciparum NF54 [2] = test system: P. falciparum NF54; design: method as in Coertzen et al. (2018); conditions: pLDH, 48 h; ref Coertzen et al. (2018); read-out: Metabolic IC50 NF54; cited from earlier work
P. falciparum Dd2 [3] = test system: P. falciparum Dd2; design: method as in Coertzen et al. (2018); conditions: pLDH, 48 h; ref Coertzen et al. (2018); read-out: Metabolic IC50 Dd2; cited from earlier work
P. falciparum NF54 [4] = test system: P. falciparum NF54; design: method as in Coertzen et al. (2018); conditions: SYBR Green I; ref Coertzen et al. (2018); read-out: Proliferative IC50 NF54; cited from earlier work
P. falciparum K1 [5] = test system: P. falciparum K1; design: method as in Coertzen et al. (2018); conditions: SYBR Green I; ref Coertzen et al. (2018); read-out: Proliferative IC50 K1; cited from earlier work
P. falciparum W2 [6] = test system: P. falciparum W2; design: method as in Coertzen et al. (2018); conditions: SYBR Green I; ref Coertzen et al. (2018); read-out: Proliferative IC50 W2; cited from earlier work
[7] = test system: P. falciparum NF54 early stage gametocytes (>90% stage I–III); design: method as in Coertzen et al. (2018); conditions: read-out: Early Stage (EG, Luc 48 h) IC50; >90% stage I–III gametocytes; ref Coertzen et al. (2018); cited from earlier work
[8] = test system: Chinese hamster ovarian (CHO) cells; conditions: read-out: Cytotoxicity EC50 CHO; MTT assay; ref Coertzen et al. (2018); cited from earlier work
P. falciparum NF54 [9] = assay: Metabolic (parasite LDH) assay, asexual ring stage parasites, 48 h; type: cell-based; conditions: Plasmodium falciparum, pLDH, CQ-sensitive NF54
Experimental: (§1) P. falciparum parasites (NF54, K1, and W2) were cultured in vitro in human erythrocytes (A^+ or O^+) under 90% N2, 5% CO2, and 5% O2 atmospheric conditions with supplemented RPMI 1640 media (Sigma Aldrich) containing Albumax II, as previously described (Verlinden et al., [2011]). This study was carried out according the guidelines set out by the Faculty of Health Sciences Ethical Committee, Ethical Clearance no. EC-120821/077. The protocol was approved by the Faculty of Health sciences ethical committee at the University of Pretoria. All subjects gave written informed consent in accordance with the Declaration of Helsinki. Parasite proliferation was monitored microscopically using Giemsa stained smears. Synchronized ring stage parasites (>95%) were obtained using a 5% D-sorbitol (Sigma Aldrich) treatment. […] Gametocyte cultures were kept stationary under 90% N2, 5% CO2, and 5% O2 atmospheric conditions at 37°C and treated with 50 mM N-acetyl-glucosamine (NAG) to eliminate residual invasion of asexual parasites.
(§2) Working solutions of the derivatives were prepared from a 10 mM stock solution in 100% DMSO in supplemented RPMI 1640 media containing Albumax II with a final DMSO concentration of <0.1%, previously determined as being non-toxic to intraerythrocytic asexual parasites and gametocytes. Dose responses were assayed using a two-fold serial drug dilution on in vitro >95% ring stage intraerythrocytic P. falciparum parasites at 37°C under 90% N2, 5% CO2, and 5% O2 atmospheric conditions, detecting both parasite lactate dehydrogenase (pLDH) activity as a metabolic marker following a 48 h drug exposure (1.5–2% parasitemia and 2% hematocrit; Makler et al., [1993]) and SYBR Green I fluorescence as proliferative marker following a 96 h drug exposure (1% parasitemia and 1% hematocrit). […] Data analysis was performed using GraphPad Prism 7.

P. falciparum Dd2 [10] = assay: as above; type: cell-based; conditions: Plasmodium falciparum, pLDH, Dd2 CQ, pyrimethamine resistant
Experimental: as §2

P. falciparum K1 [11] = assay: Proliferative (SYBR Green I) assay, asexual parasites, 96 h; type: cell-based; conditions: Plasmodium falciparum, ±SEM
Experimental: as §1, §2

P. falciparum NF54 [12] = assay: as above; type: cell-based; conditions: Plasmodium falciparum, ±SEM
Experimental: as §1, §2

P. falciparum W2 [13] = assay: as above; type: cell-based; conditions: Plasmodium falciparum, ±SEM
Experimental: as §1, §2

Cytotoxicity, MTT assay = type: cell-based; conditions: Chinese hamster, CHO cells
Experimental: (§3) Cytotoxicity (EC50) was determined against Chinese hamster ovarian (CHO) using a 3-(4,5-dimethylthiazol-2-yl)-2,5-diphenyltetrazolium bromide (MTT) assay and hepatocellular carcinoma cells (HepG2) using the Cytoselect LDH cytotoxicity assay kit (Cell Biolabs).

[14] = Cytotoxicity, Cytoselect LDH cytotoxicity assay kit; type: cell-based; conditions: human, HepG2 cells
Experimental: as §3

[15] = test system: P. falciparum NF54 early stage gametocytes (>90% stage I–III); assay: Gametocytocidal luciferase reporter assay, early stage, 48 h; type: cell-based; conditions: Plasmodium falciparum, NF54, 48 h, read-out: Early Stage (EG, Luc 48 h) IC50
Experimental: as §1
(§4) Gametocytocidal activity was determined using the luciferase reporter line (Reader et al., [2015]) to derive dose responses with two-fold serial drug dilutions for 48 h against early stage gametocytes (day 5 post-induction population, >90% stage I–III) and 10-fold serial drug dilutions for 72 h against late stage gametocytes (day 10 post-induction population, >90% late stage IV–V) (2% gametocytemia, 2% hematocrit), at 37°C under 90% N2, 5% CO2, and 5% O2 atmospheric conditions.

[16] = test system: P. falciparum NF54 late stage gametocytes (>90% stage IV and V); assay: Gametocytocidal luciferase reporter assay, late stage, 72 h; type: cell-based, Plasmodium falciparum; conditions: Plasmodium falciparum, NF54, 72 h, read-out: Late Stage (LG, Luc 72 h) IC50, >90% stage IV and V gametocytes, ±SEM
Experimental: as §1, §4

[17] = test system: P. berghei ANKA GFP-Luc-SMcon sporozoites; assay: P. berghei-luciferase liver stage bioluminescence assay (causal prophylactic mode) in HepG2-CD81 cells; type: cell-based, Plasmodium berghei
Experimental: (§5) Briefly, HepG2-CD81 cells were seeded into 1,536 well plates containing 50 nL of test and control compounds diluted into DMSO. […] Next, 2 μL of luciferin reagent (Promega BrightGlo) was added to each well and luciferase activity was detected using a Perkin Elmer Envision plate reader. […] In parallel, plates were processed without sporozoites for HepG2 toxicity measurements.
(§6) In continuation of the transmission blocking theme, it is important to establish activities against liver stage parasites. […] This assay uses ultra-high-throughput screening methods optimized for a 1536-well format and a HepG2 human hepatoma cell line. […] To establish selectivity of the compounds for the parasite in the liver stage of infection, cytotoxicity was determined by measuring bioluminescence from the reaction between free ATP of compound-treated, uninfected hepatocytes and a luciferase reporter system.

[18] = HepG2 cytotoxicity bioluminescence assay (CellTiterGlo, ATP); type: cell-based, human; conditions: human, uninfected HepG2-CD81 cells
Experimental: as §5, §6

HepG2 cells = assay: as above; type: cell-based, human; conditions: two biological replicates listed in one cell; listed as 24 (WHN-12)
Experimental: as §5, §6

[19] = test system: asexual P. falciparum NF54, Dd2, K1, W2; assay: Asexual P. falciparum, metabolic (pLDH) and proliferative (SYBR Green I) platforms; type: cell-based; conditions: Plasmodium falciparum; read-out: IC50 for drug sensitive NF54 parasites across both assay platforms
Experimental: Data analysis was performed using GraphPad Prism 7.
The in vitro activities of the new derivatives were determined against drug sensitive NF54 and multi-drug resistant Dd2, K1, and W2 intraerythrocytic asexual P. falciparum malaria parasite strains using both a metabolic (parasite LDH) and a proliferative (SYBR Green I fluorescence) assay readout (Table 1).

[20] = test system: P. falciparum NF54 late stage gametocytes (>90% stage IV and V); design: method as in Coertzen et al. (2018); conditions: read-out: Late Stage (LG, Luc 72 h) IC50; >90% stage IV and V gametocytes; ref Coertzen et al. (2018); cited from earlier work

In the case of CC1CCC2C(C)C(N3CCN(C(=O)Nc4ccccc4)CC3)OC3OC4(C)CCC1C32OO4 (centres unmarked) [Phenylurea 10], the IC50 (P. falciparum W2 [1]; W2, read-out: W2 IC50) is listed as 0.12 ± 0.03 nM, the IC90 (P. falciparum W2 [1]; W2, read-out: W2 IC90) is listed as 0.2 ± 0.03 nM and the IC50 (P. falciparum NF54 [2]) is listed as 1.3 ± 0.8 nM. For the same compound, the IC50 (P. falciparum Dd2 [3]) was 7.5 ± 0.4 nM, the IC50 (P. falciparum NF54 [4]) was 4.7 ± 1.5 nM and the IC50 (P. falciparum K1 [5]) was 2.9 ± 0.6 nM. The IC50 (P. falciparum W2 [6]) was 1.7 ± 0.5 nM, the IC50 [7] was 83 ± 2 nM and the EC50 [8] was 2400 ± 1000 nM.
Compound C[C@H]1[C@H](N2CCN(C(=O)Nc3ccc(F)cc3)CC2)O[C@@H]2O[C@@]3(C)CC[C@H]4[C@H](C)CC[C@@H]1[C@@]24OO3 [Compound 24] has an IC50 (P. falciparum NF54 [9]) of 1.21 ± 0.04 nM, an IC50 (P. falciparum Dd2 [10]) of 9.2 ± 1.9 nM and an IC50 (P. falciparum K1 [11]) of 0.85 ± 0.1 nM. The IC50 (P. falciparum NF54 [12]) was 1.3 ± 0.1 nM, the IC50 (P. falciparum W2 [13]) was 1.16 ± 0.17 nM and the EC50 (Cytotoxicity, MTT assay) was 204000 nM. It also gave an EC50 [14] of 340 nM, an IC50 [15] of 36 ± 10.2 nM and an IC50 [16] of 17 ± 7 nM. For the same compound, the Emax ([17]; Plasmodium berghei, 48 h, two biological replicates listed in one cell, read-out: P.berghei-Luciferase Liver Stage Bioluminescence Assay: Maximum measured (%)) was 99.2%, the IC50 ([17]; Plasmodium berghei, HepG2, 48 h, read-out: P. berghei sporozoites IC50, liver stage, HepG2 host cells, luciferase after 48 h, ±SD) was 106 ± 6.36 nM and the inhibition at 10 µM ([17]; Plasmodium berghei, read-out: P. berghei sporozoites Maximum inhibition %) was 94.8 ± 2.76%. For the same compound, the IC50 ([17]; Plasmodium berghei, two biological replicates listed in one cell, read-out: P.berghei-Luciferase Liver Stage Bioluminescence Assay: IC50) was 101 nM, the IC50 ([17]; two biological replicates listed in one cell, listed as 24 (WHN-12), read-out: P.berghei-Luciferase Liver Stage Bioluminescence Assay: IC50) was 110 nM and the IC50 at 72 h ([18]; two biological replicates listed in one cell) was 6440 nM. The EC50 at 72 h ([18]; uninfected HepG2, ATP bioluminescence) was 5160 nM, the “HepG2 Cytotoxicity Bioluminescence Assay: Maximum measured (%)” value (HepG2 cells) was 59.5% and 66.1% and the IC50 (HepG2 cells) was 3880 nM. It also gave an IC50 [19] of 1 to 2 nM.
For CC1CCC2C(C)C(N3CCNCC3)OC3OC4(C)CCC1C32OO4 (centres unmarked) [DHA-piperazine 9], the IC50 (P. falciparum NF54 [2]) is listed as 3.2 ± 1.4 nM, the IC50 (P. falciparum Dd2 [3]) is listed as 1.7 ± 0.2 nM and the IC50 (P. falciparum NF54 [4]) is listed as 3.1 ± 0.4 nM. For the same compound, the IC50 (P. falciparum K1 [5]) was 1.9 ± 0.5 nM, the IC50 (P. falciparum W2 [6]) was 1.4 ± 0.7 nM and the IC50 [7] was 54.9 ± 5.11 nM. The IC50 [20] was 25.7 ± 17.5 nM.
